Measured values as given in US20240383852A1, “ANTI-VIRAL COMPOUNDS” (INFEX Therapeutics Limited, priority 2021, published 2024).
Where a name gives a salt, the structure may show the parent alone.

What was measured:
[1] = test system: human Hep G2 cells (ATCC HB-8065); test: Cytotoxicity in Hep G2 cells (CellTiter-Glo); type: cell-based; settings: Hep G2 cells, 100 μM test article, 24-hour exposure
[2] = target: T1, SARS-CoV-2 PLpro (Severe acute respiratory syndrome coronavirus 2, UniProt P0DTD1); test: biochemical; settings: 60 nM papain-like protease, 50 μM Z-RLRGG-AMC, pH 7.5, 37° C.; read-out: SARS-CoV-2 PLpro IC50
T1 construct: containing 60 nM papain-like protease

COc1ccc([C@@H](C)NC(=O)c2cc(N3CCCN(C)CC3)ccc2C)cc1OC [Example 13, N-[(1R)-1-(3,4-Dimethoxyphenyl)ethyl]-2-methyl-5-(4-methyl-1,4-diazepan-1-yl)benzamide]
% Cell Viability [1]: 103.8%
IC50 [2]: < 10 µM

Cc1ccc(N2CCN(C)CC2)nc1C(=O)N[C@H](C)c1cccc2ccccc12 [Example 15, 3-Methyl-6-(4-methylpiperazin-1-yl)-N-[(1R)-1-(1-naphthyl)ethyl]pyridine-2-carboxamide hydrochloride]
% Cell Viability [1]: 76.1%
IC50 [2]: < 10 µM

Cc1ccc(N2CCC(N)CC2)cc1C(=O)N[C@H](C)c1cccc2ccccc12 [Example 16, 5-(4-Amino-1-piperidyl)-2-methyl-N-[(1R)-1-(1-naphthyl)ethyl]benzamide]
% Cell Viability [1]: 1.1%
IC50 [2]: < 5 µM

Cc1ccc(N2CC3(CNC3)C2)cc1C(=O)N[C@H](C)c1cccc2ccccc12 [Example 17, 5-(2,6-Diazaspiro[3.3]heptan-2-yl)-2-methyl-N-[(1R)-1-(1-naphthyl)ethyl]benzamide]
% Cell Viability [1]: 34.7%
IC50 [2]: < 5 µM

COc1ccc([C@@H](C)NC(=O)c2cc(N3C[C@@H]4C[C@H]3CN4)ccc2C)cc1OC [Example 18, 5-[(1S,4S)-2,5-Diazabicyclo[2.2.1]heptan-2-yl]-N-[(1R)-1-(3,4-dimethoxyphenyl)ethyl]-2-methyl-benzamide]
% Cell Viability [1]: 119.3%
IC50 [2]: < 20 µM

Cc1ccc(N2CCN[C@@H](C(C)C)C2)cc1C(=O)N[C@H](C)c1cccc2ccccc12 [Example 19, 5-[(3S)-3-Isopropylpiperazin-1-yl]-2-methyl-N-[(1R)-1-(1-naphthyl)ethyl]benzamide]
% Cell Viability [1]: 1.0%
IC50 [2]: < 2 µM

Cc1ccc(N2CC3(CN(CCO)C3)C2)cc1C(=O)N[C@H](C)c1cccc2ccccc12 [Example 20, 5-[6-(2-Hydroxyethyl)-2,6-diazaspiro[3.3]heptan-2-yl]-2-methyl-N-[(1R)-1-(1-naphthyl)ethyl]benzamide]
% Cell Viability [1]: 94.3%
IC50 [2]: < 5 µM

Cc1ccc(N2CCN(C)CC2)cc1C(=O)N[C@H](C)c1cccc2ccccc12 [Example 21, 2-Methyl-5-(4-methylpiperazin-1-yl)-N-[(1R)-1-(1-naphthyl)ethyl]benzamide]
% Cell Viability [1]: 56.9%
IC50 [2]: < 2 µM

Cc1ccc(N2CCN(C)CC2)cc1C(=O)N[C@H](C)c1cccc(Br)c1 [Example 22, N-[(1R)-1-(3-Bromophenyl)ethyl]-2-methyl-5-(4-methylpiperazin-1-yl)benzamide]
% Cell Viability [1]: 65.5%
IC50 [2]: < 5 µM

COc1ccc([C@@H](C)NC(=O)c2cc(N3CCN(C)CC3)ccc2C)cc1OC [Example 23, N-[(1R)-1-(3,4-Dimethoxyphenyl)ethyl]-2-methyl-5-(4-methylpiperazin-1-yl)benzamide]
% Cell Viability [1]: 87.3%
IC50 [2]: < 2 µM

Cc1ccc(N2CCN(C)CC2)cc1C(=O)N[C@H](C)c1ccc(Br)cc1 [Example 24, N-[(1R)-1-(4-Bromophenyl)ethyl]-2-methyl-5-(4-methylpiperazin-1-yl)benzamide]
% Cell Viability [1]: 70.7%
IC50 [2]: < 10 µM

Cc1ccc(N2CCN(C)CC2)cc1C(=O)N[C@H](C)c1cccc(F)c1 [Example 25, N-[(1R)-1-(3-Fluorophenyl)ethyl]-2-methyl-5-(4-methylpiperazin-1-yl)benzamide]
% Cell Viability [1]: 95.2%
IC50 [2]: < 20 µM

Cc1ccc(N2CCS(=O)(=O)CC2)cc1C(=O)N[C@H](C)c1cccc2ccccc12 [Example 26, 5-(1,1-Dioxo-1,4-thiazinan-4-yl)-2-methyl-N-[(1R)-1-(1-naphthyl)ethyl]benzamide]
% Cell Viability [1]: 82.8%
IC50 [2]: < 100 µM

Cc1ccc(N2CCN(C)CC2)cc1C(=O)N[C@H](C)c1cccc(-c2ccccc2)c1 [Example 27, 2-Methyl-5-(4-methylpiperazin-1-yl)-N-[(1R)-1-(3-phenylphenyl)ethyl]benzamide]
% Cell Viability [1]: 1.0%
IC50 [2]: < 2 µM

COc1cccc([C@@H](C)NC(=O)c2cc(N3CCN(C)CC3)ccc2C)c1 [Example 29, N-[(1R)-1-(3-Methoxyphenyl)ethyl]-2-methyl-5-(4-methylpiperazin-1-yl)benzamide]
% Cell Viability [1]: 100%
IC50 [2]: < 5 µM

COc1ccc([C@@H](C)NC(=O)c2cc(N3CCN(C)CC3)ccc2C)cc1 [Example 30, N-[(1R)-1-(4-Methoxyphenyl)ethyl]-2-methyl-5-(4-methylpiperazin-1-yl)benzamide]
% Cell Viability [1]: 102.3%
IC50 [2]: < 10 µM

COc1cc(OC)cc([C@@H](C)NC(=O)c2cc(N3CCN(C)CC3)ccc2C)c1 [Example 31, N-[(1R)-1-(3,5-Dimethoxyphenyl)ethyl]-2-methyl-5-(4-methylpiperazin-1-yl)benzamide]
% Cell Viability [1]: 90.6%
IC50 [2]: < 5 µM

COc1ccc([C@@H](C)NC(=O)c2cc(N3CCN(CCO)CC3)ccc2C)cc1OC [Example 32, N-[(1R)-1-(3,4-Dimethoxyphenyl)ethyl]-5-[4-(2-hydroxyethyl)piperazin-1-yl]-2-methyl-benzamide]
% Cell Viability [1]: 103.5%
IC50 [2]: < 5 µM

Cc1ccc(N2CCN(C)CC2)cc1C(=O)N[C@H](C)c1cccc2c1OCO2 [Example 33, N-[(1R)-1-(1,3-Benzodioxol-4-yl)ethyl]-2-methyl-5-(4-methylpiperazin-1-yl)benzamide hydrochloride salt]
% Cell Viability [1]: 95.5%
IC50 [2]: < 10 µM

Cc1ccc(N2CCN(C)CC2)cc1C(=O)N[C@H](C)c1cccc(C#N)c1 [Example 34, N-[(1R)-1-(3-Cyanophenyl)ethyl]-2-methyl-5-(4-methylpiperazin-1-yl)benzamide]
% Cell Viability [1]: 97.8%
IC50 [2]: < 10 µM

COc1ccc([C@@H](C)NC(=O)c2cc(N3CC4CNCC4C3)ccc2C)cc1OC (stereo partly drawn) [Example 36, 5-(2,3,3a,4,6,6a-Hexahydro-1H-pyrrolo[3,4-c]pyrrol-5-yl)-N-[(1R)-1-(3,4-dimethoxyphenyl)ethyl]-2-methyl-benzamide]
% Cell Viability [1]: 98.0%
IC50 [2]: < 2 µM

Cc1nnc(-c2cccc([C@@H](C)NC(=O)c3cc(N4CCN(C)CC4)ccc3C)c2)s1 [Example 39, 2-Methyl-5-(4-methylpiperazin-1-yl)-N-[(1R)-1-[3-(5-methyl-1,3,4-thiadiazol-2-yl)phenyl]ethyl]benzamide]
% Cell Viability [1]: 90.5%
IC50 [2]: < 2 µM

COc1ccc(-c2cccc([C@@H](C)NC(=O)c3cc(N4CCN(C)CC4)ccc3C)c2)cc1 [Example 40, N-[(1R)-1-[3-(4-Methoxyphenyl)phenyl]ethyl]-2-methyl-5-(4-methylpiperazin-1-yl)benzamide]
% Cell Viability [1]: 0.9%
IC50 [2]: < 2 µM

Cc1ccc(N2CCN(C)CC2)cc1C(=O)N[C@H](C)c1cccc(-c2ccc(C(=O)O)cc2)c1 [Example 41]
% Cell Viability [1]: 110.1%
IC50 [2]: < 5 µM

Cc1ccc(N2CCN(C)CC2)cc1C(=O)N[C@H](C)c1cccc(-c2cccc(CO)c2)c1 [Example 42, N-[(1R)-1-[3-[3-(Hydroxymethyl)phenyl]phenyl]ethyl]-2-methyl-5-(4-methylpiperazin-1-yl)benzamide]
% Cell Viability [1]: 64.1%
IC50 [2]: < 2 µM
